US20120238606A1, “[…] AMINE SALTS, PREPARATION METHOD AND USE THEREOF” (JIANGSU HANS PHA[…] CO., LTD., priority 2009, published 2012)

What was measured:
[1] = test system: angiotensin II-induced hypertensive rats; assay: Effect on blood pressure in angiotensin II-induced hypertensive rats; assay type: in vivo, Sprague-Dawley rats; conditions: male SD rats, single equimolar dose ig (0.11 mg/kg example 1; 0.123 mg/kg example 2) in 0.5% methyl cellulose, AII 100 ng/kg iv again after 24 hours, Mean±S.E.
Method: The effect of compounds of the present invention on blood pressure in angiotensin II-induced hypertensive rats was investigated.
Male Sprague-Dawley rats (9-11 weeks old, CLEA Japan, Inc.) were anesthetized by pentobarbital solution (50 mg/kg, ip.) and prepared for surgery. The surgery procedure was as follows: made an incision through the skin on the abdomen and abdominal wall, separated the aorta and vein from the vena cava, occluded blood flow to allow introduction of a polyethylene (PE) tube filled with normal saline containing heparin (200 U/mL) into the vessel, passed the PE tube through the subcutaneous slits, and fixed the PE tube at the back of the neck. After recovery period, the rats were induced hypertension by intravenous administration of 100 ng/kg angiotensin II (AII). The PE tube was combined with a pressure transducer coupled to a blood pressure monitor amplifier (2238, NEC San-ei Instruments). The animals were enrolled based on average systolic blood pressure over 24 hours. All the animals with average systolic blood pressure less than 140 mmHg were excluded from this study, and the others were divided into 2 groups. […] The rats were injected intravenously AII again after 24 hours, and their blood pressure were measured by the monitor. The rat blood pressure inhibition ratios after dosing were calculated. […] The results were expressed as Mean±S.E. (Table 1).

[2] = test system: angiotensin II-induced hypertensive dogs; assay: Effect on blood pressure in angiotensin II-induced hypertensive dogs; assay type: in vivo; conditions: male Beagle dogs, equimolar dose ig (1.10 mg/kg example 1; 1.23 mg/kg example 2) in 0.5% methyl cellulose, mean±S.E.
Method: The effect of compounds of the present invention on blood pressure in angiotensin II-induced hypertensive dogs was investigated.
In this study, male Beagle dogs (weighting 12.0-14.7 kg, KITAYAMA LABES, CO., LTD.) were employed. The dogs were anesthetized by pentobarbital solution (50 mg/kg, ip) and prepared for surgery. The surgery procedure was as follows: made an endotracheal intubation for controlling the breathing, shaved the regions of femoral and back of the neck, fixed the dogs at the dorsal position, used isodine solution (MEIJI SEIKA KAISHA, LTD.) to sterilize the skins, made an incision through the skin on the right femoral region, separated the arteria femoralis, occluded blood flow to allow introduction of a mirror catheter (5 F, MILLER INDUSTRIES) and polyurethane tube into the aorta and vein, respectively, passed the tubes through the subcutaneous slits and fixed the tubes at the back, closed the wall and sutured the skin, and injected intramuscularly the penicillin G potassium (MEIJI SEIKA KAISHA, LTD., 40,000 units) for sterilization. For post-operative care, animals were administered 40,000 units penicillin G potassium intramuscularly once daily for 3 days. There was a recovery period before study ongoing.
The animals were singly housed in a small metabolic cage and fasted during the experiment. The mirror catheter was linked to a transducer unit (MILLER INDUSTRIES). Through a DC amplifier (N4777, NEC San-ei Instruments) and a blood pressure monitor amplifier (N4441, NEC San-ei Instruments), the blood pressure was recorded by a recorder (RECTI-HORIZ 8 K, NEC San-Ei Instruments). In order to establish a hypertension model, the dogs were injected intravenously 100 ng/kg AII for 3 or 4 times before dosing test articles. The test articles were an equal molar dose suspended in 0.5% methyl cellulose, and the dosing volume for all animals was 2 mL/kg. After administration, the blood pressure was measured by the monitor. The dog blood pressure inhibition ratios after dosing were calculated, and the results were expressed as mean±S.E. (Table 2).

Structure (SMILES) | Inhibition ratios (%) (blood pressure inhibition ratio after dosing) [1] | Inhibition ratios (%) 10 hr post dosing [2] [%] | Inhibition ratios (%) 24 hr post dosing [2] [%]
CCOc1nc2cccc(C(=O)O)c2n1Cc1ccc(-c2ccccc2-c2noc(=O)[nH]2)cc1.C[N+](C)(C)CCO [Product of example 2, Azilsartan choline] | 54.3 ± 5.1 | 79.3 ± 8.6 | 59.5 ± 6.3
CCOc1nc2cccc(C(=O)O)c2n1Cc1ccc(-c2ccccc2-c2noc(=O)[nH]2)cc1.NCCO [Product of example 1, Azilsartan ethanolamine] | 57.4 ± 6.7 | 82.7 ± 7.3 | 61.6 ± 4.8
